Assay results: patent US9242933B2 (AbbVie Deutschland GmbH & Co. KG, priority 2007, dated 2016)

target: T1, human mGlu2 receptor (Homo sapiens, UniProt Q14416); experiment: FLIPR intracellular Ca2+ assay, potentiation of glutamate response in HEK293 clone expressing mGlu2 receptor, rGLAST and Galpha16; format: cell-based; settings: 1 μM glutamate added ten minutes after test compound, HEK293 cells with human mGlu2, rGLAST, Galpha16, read-out: EC50 values of potentiation effect to glutamate
T1 construct: expressed in transfected cells; host or cells: HEK293
Source text: The compounds of the present invention can be tested e.g. by evaluating intracellular Ca^2+ concentrations in cells permanently expressing human mGlu receptor, the rat glutamate transporter rGLAST and the Galpha16 subunit of the G-protein complex under standard conditions in a fluorometric imaging plate reader (FLIPR, Molecular Devices, Union City, Calif. 94587, USA) by measuring the response of the cells to a test compound in the absence of presence of glutamate. The FLIPR assay is a common functional assay to monitor native or recombinant Galphaq-coupled receptors, and native or recombinant receptors normally linked to other G-protein signalling cascades, which are coupled to calcium through co-expression of an alpha subunit of a promiscuous or chimeric G-protein. In the assay the increase of intracellular calcium is measured through a calcium-dependent fluorescent dye (e.g. Fluo-4 AM) in the FLIPR instrument.
For the purpose of the present study, a cell line permanently expressing a human mGlu receptor, such as the mGlu2 receptor, the rat glutamate transporter rGLAST and the GalphaG16 may be generated by transfection as described in the examples. For selection of a suitable cell clone and also the subsequent measurements, the selected clone the cells will be plated on suitable multiwell plates in a suitable medium (e.g. DMEM Glutamax (GIBCO #21885-025)/10% dialyzed FCS). Cells may be selected by gentamycin treatment as described in the examples. Cells will then be loaded with a suitable Ca^2+ sensitive fluorescence dye, e.g. with 2 μM Fluo-4 AM (Molecular Probes, F14201). Cells will then be washed with a suitable buffer (e.g. HEPES) and the thus treated plates will be measured in a fluorometric imaging plate reader (e.g. FLIPR, Molecular Devices, Union City, Calif. 94587, USA).
The compounds of the present invention were tested in the above-described FLIPR assay using the selected cell clone. Increased intracellular calcium levels were quantified following addition of test compound (agonism), as well as following addition of a submaximal concentration of glutamate (potentiation).
For the determination of the effect of the test compound by itself (agonism) or by increasing the response to a submaximal concentration (e.g. 1 μM) of glutamate (potentiation), the resulting signal is determined by subtraction of the background fluorescence from the maximal fluorescent peak height of the respective response. In the FLIPR instrument the compound is given to the cell and its fluorescence response quantified by the FLIPR instrument (agonism). The concentration at which the compound exerts half its maximal effect is named the ‘effective concentration 50’ or ‘EC50’. The maximal effect induced by the test substance is normalized to the maximal effect exerted by 100 μM glutamate (set at 100%).
After addition of the test compound to the plate, a submaximal concentration of glutamate (e.g. 1 μM glutamate) will be added. A potentiator enhances the response of the receptor to glutamate. The response to glutamate in the presence of test compound is quantified. The concentration at which the test compound is able to exert half its maximal potentiation effect to glutamate is named the ‘EC50’. The maximal response to the submaximal concentration of glutamate (e.g. 1 micromolar glutamate) in the presence of test compound is normalized to the maximal effect exerted by 100 micromolar glutamate (set at 100%). Least squares curve fitting with a four-parameter equation is then applied to the resulting dose-response curve to determine the resulting EC5O values (Graph Pad Prism).
For the purpose of the present study, a cell line permanently expressing the human mGlu2 receptor, the rat glutamate transporter rGLAST and the alpha subunit of G16 was generated by transfection. […]

T1 sequence (Q14416 19-872): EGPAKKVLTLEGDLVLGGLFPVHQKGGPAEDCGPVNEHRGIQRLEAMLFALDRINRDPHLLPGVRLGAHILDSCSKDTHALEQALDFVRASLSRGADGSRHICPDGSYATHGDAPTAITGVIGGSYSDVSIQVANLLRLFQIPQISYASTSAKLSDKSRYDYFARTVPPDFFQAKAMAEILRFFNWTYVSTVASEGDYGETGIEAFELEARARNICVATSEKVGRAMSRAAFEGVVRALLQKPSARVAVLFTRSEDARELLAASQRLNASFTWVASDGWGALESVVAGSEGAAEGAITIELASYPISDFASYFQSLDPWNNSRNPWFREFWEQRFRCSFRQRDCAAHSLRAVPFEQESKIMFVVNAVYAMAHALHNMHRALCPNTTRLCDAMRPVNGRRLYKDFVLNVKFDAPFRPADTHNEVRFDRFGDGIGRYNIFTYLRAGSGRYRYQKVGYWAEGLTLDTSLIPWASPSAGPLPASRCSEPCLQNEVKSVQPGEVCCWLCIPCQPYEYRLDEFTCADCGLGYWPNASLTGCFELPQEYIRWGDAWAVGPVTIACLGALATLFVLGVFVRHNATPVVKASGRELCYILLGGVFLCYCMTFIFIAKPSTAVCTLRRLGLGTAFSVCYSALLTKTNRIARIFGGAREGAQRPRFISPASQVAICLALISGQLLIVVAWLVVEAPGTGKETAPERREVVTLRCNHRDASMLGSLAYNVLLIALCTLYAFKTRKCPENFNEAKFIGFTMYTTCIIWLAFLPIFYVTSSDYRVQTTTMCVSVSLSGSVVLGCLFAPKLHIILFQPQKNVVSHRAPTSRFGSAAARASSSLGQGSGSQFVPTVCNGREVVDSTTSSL

Compound | EC50
2-Propyl-6-{[3-(4-trifluoromethyl-phenyl)-1H-pyrazol-4-ylmethyl]-amino}-2,3-dihydro-isoquinolin-1-one [Example 584] | < 1000 nM
CCCC(=O)c1ccc(NCc2ccc(CC)s2)cc1 [Example 9, 1-{4-[(5-Ethylthiophen-2-ylmethyl)amino]phenyl}butan-1-one] | 1000 to 10000 nM
CCCC(=O)c1ccc(NCc2ccco2)cc1 [Example 13, 1-{4-[(Furan-2-ylmethyl)amino]phenyl}butan-1-one] | 1000 to 10000 nM
CCCC(=O)c1ccc(NCc2cccnc2)cc1 [Example 16, 1-{4-[(Pyridin-3-ylmethyl)amino]phenyl}butan-1-one] | 1000 to 10000 nM
CCCC(=O)c1ccc(NCc2ccc(COC(C)=O)o2)cc1 [Example 23, Acetic acid 5-[(4-butyrylphenylamino)methyl]furan-2-ylmethyl ester] | 1000 to 10000 nM
CCCC(=O)c1ccc(NCc2ccc3ncccc3c2)cc1 [Example 25, 1-{4-[(Quinolin-6-ylmethyl)amino]phenyl}butan-1-one] | 1000 to 10000 nM
CCCC(=O)c1ccc(NCc2ccc(-c3ccc(S(N)(=O)=O)cc3)o2)cc1 [Example 35, 4-{5-[(4-Butyrylphenylamino)methyl]furan-2-yl}benzenesulfonamide] | 1000 to 10000 nM
CCCC(=O)c1ccc(NCc2cnccc2-c2cccc(Br)c2)cc1 [Example 37, 1-(4-{[4-(3-Bromophenyl)pyridin-3-ylmethyl]amino}phenyl)butan-1-one] | 1000 to 10000 nM
CCCC(=O)c1ccc(NCc2c[nH]nc2-c2cccs2)cc1 [Example 40, 1-(4-{[3-(Thiophen-2-yl)-1H-pyrazol-4-ylmethyl]amino}phenyl)butan-1-one] | < 1000 nM
CCCC(=O)c1ccc(NCc2c[nH]nc2-c2ccc(C(F)(F)F)cc2)cc1 [Example 42] | < 1000 nM
CCCC(=O)c1ccc(NCc2c(-c3ccccc3)noc2C)cc1 [Example 43, 1-{4-[(5-Methyl-3-phenylisoxazol-4-ylmethyl)amino]phenyl}butan-1-one] | 1000 to 10000 nM
CCCC(=O)c1ccc(NCc2cnn(-c3ccccc3)c2C)cc1 [Example 45, 1-{4-[(5-Methyl-1-phenyl-1H-pyrazol-4-ylmethyl)amino]phenyl}butan-1-one] | 1000 to 10000 nM
CCCC(=O)c1ccc(NCc2csc(-c3ccccc3)n2)cc1 [Example 46, 1-{4-[(2-Phenylthiazol-4-ylmethyl)amino]phenyl}butan-1-one] | 1000 to 10000 nM
CCCC(=O)c1ccc(NCc2c(C)nn(C)c2Oc2ccc(Cl)cc2)cc1 [Example 49, 1-(4-{[5-(4-Chlorophenoxy)-1,3-dimethyl-1H-pyrazol-4-ylmethyl]amino}phenyl)butan-1-one] | 1000 to 10000 nM
CCCC(=O)c1ccc(NCc2c(C)nn(C)c2Oc2cccc(Cl)c2)cc1 [Example 50, 1-(4-{[5-(3-Chlorophenoxy)-1,3-dimethyl-1H-pyrazol-4-ylmethyl]amino}phenyl)butan-1-one] | 1000 to 10000 nM
CCCC(=O)c1ccc(NCc2c(CSc3ccccc3)nn(C)c2Cl)cc1 [Example 52, 1-(4-{[5-Chloro-1-methyl-3-(phenylthiomethyl)-1H-pyrazol-4-ylmethyl]amino}phenyl)butan-1-one] | 1000 to 10000 nM
CCCC(=O)c1ccc(NCc2c(C(F)(F)F)nn(C)c2Cl)cc1 [Example 53, 1-(4-{[5-Chloro-1-methyl-3-(trifluoromethyl)-1H-pyrazol-4-yl]methylamino}phenyl)butan-1-one] | 1000 to 10000 nM
CCCC(=O)c1ccc(NCc2cnn(CC)c2C)cc1 [Example 55, 1-{4-[(1-Ethyl-5-methyl-1H-pyrazol-4-ylmethyl)amino]phenyl}butan-1-one] | 1000 to 10000 nM
CCCC(=O)c1ccc(NCc2c(C)nn(-c3ccccc3)c2C)cc1 [Example 56, 1-{4-[(3,5-Dimethyl-1-phenyl-1H-pyrazol-4-ylmethyl)amino]phenyl}butan-1-one] | 1000 to 10000 nM

Compound | EC50
CCCC(=O)c1ccc(NCc2ccnn2-c2ccccc2)cc1 [Example 57, 1-{4-[(2-Phenyl-2H-pyrazol-3-ylmethyl)amino]phenyl}butan-1-one] | 1000 to 10000 nM
CCCC(=O)c1ccc(NCc2c(C)nn(C(C)(C)C)c2C)cc1 [Example 58, 1-{4-[(1-tert-Butyl-3,5-dimethyl-1H-pyrazol-4-ylmethyl)amino]phenyl)butan-1-one] | 1000 to 10000 nM
CCCC(=O)c1ccc(NCc2cnn(C)c2C)cc1 [Example 60, 1-{4-[(1,5-Dimethyl-1H-pyrazol-4-ylmethyl)amino]phenyl}butan-1-one] | 1000 to 10000 nM
CCCC(=O)c1ccc(NCc2cn[nH]c2)cc1 [Example 68, 1-{4-[(1H-Pyrazol-4-ylmethyl)amino]phenyl}butan-1-one] | 1000 to 10000 nM
CCCC(=O)c1ccc(NCc2cnn(CCC)c2C)cc1 [Example 71] | 1000 to 10000 nM
CCCC(=O)c1ccc(NCc2cnn(C)c2-c2ccccc2)cc1 [Example 73] | < 1000 nM
CCCC(=O)c1ccc(NCc2cnn(C(C)C)c2)cc1 [Example 75, 1-{4-[(1-Isopropyl-1H-pyrazol-4-ylmethyl)amino]phenyl}butan-1-one] | 1000 to 10000 nM
CCCC(=O)c1ccc(NCc2c[nH]nc2-c2ccc(O)cc2)cc1 [Example 76, 1-(4-{[3-(4-Hydroxyphenyl)-1H-pyrazol-4-ylmethyl]amino}phenyl)butan-1-one] | < 1000 nM
CCCC(=O)c1ccc(NCc2c[nH]nc2C(C)(C)C)cc1 [Example 77, 1-{4-[(3-tert-Butyl-1H-pyrazol-4-ylmethyl)amino]phenyl}butan-1-one] | < 1000 nM
O=C1CCc2cc(NCc3c[nH]nc3-c3ccc(C(F)(F)F)cc3)ccc21 [Example 81, 5-{[3-(4-Trifluoromethylphenyl)-1H-pyrazol-4-ylmethyl]-amino}-indan-1-one] | 1000 to 10000 nM
COc1ccccc1Oc1ccc(NCc2c[nH]nc2-c2ccc(C(F)(F)F)cc2)cc1 [Example 83, [4-(2-Methoxy-phenoxy)-phenyl]-[3-(4-trifluoromethylphenyl)-1H-pyrazol-4-ylmethyl]-amine] | < 1000 nM
COc1cc(NCc2c[nH]nc2C(C)(C)C)cc(OC)c1 [Example 116, (3-tert-Butyl-1H-pyrazol-4-ylmethyl)-(3,5-dimethoxyphenyl)-amine] | 1000 to 10000 nM
CC(C)(C)c1n[nH]cc1CNc1ccc2c(c1)OCO2 [Example 117, Benzo[1,3]dioxol-5-yl-(3-tert-butyl-1H-pyrazol-4-ylmethyl)-amine] | 1000 to 10000 nM
CN(C)S(=O)(=O)c1ccc(NCc2c[nH]nc2-c2ccc(C(F)(F)F)cc2)cc1 [Example 169, N,N-Dimethyl-4-{[3-(4-trifluoromethyl-phenyl)-1H-pyrazol-4-ylmethyl]-amino}-benzenesulfonamide] | 1000 to 10000 nM
CCCC(=O)c1ccc(NCc2c[nH]nc2-c2ccc(OC)cc2)cc1 [Example 209, 1-(4-{[3-(4-Methoxy-phenyl)-1H-pyrazol-4-ylmethyl]-amino}-phenyl)-butan-1-one] | < 1000 nM
CCCC(=O)c1ccc(NCc2c[nH]nc2-c2ccccc2)cc1 [Example 210, 1-{4-[(3-Phenyl-1H-pyrazol-4-ylmethyl)-amino]-phenyl}-butan-1-one] | < 1000 nM
CCCC(=O)c1ccc(NCc2c(C)nn(C)c2C)cc1 [Example 211, 1-{4-[(1,3,5-Trimethyl-1H-pyrazol-4-ylmethyl)-amino]-phenyl}-butan-1-one] | 1000 to 10000 nM
CCCC(=O)c1ccc(NCc2c[nH]nc2-c2ccc(C)cc2)cc1 [Example 212, 1-{4-[(3-p-Tolyl-1H-pyrazol-4-ylmethyl)-amino]-phenyl}-butan-1-one] | < 1000 nM
CCCC(=O)c1ccc(NCc2c[nH]nc2-c2cc(F)cc(F)c2)cc1 [Example 213, 1-(4-{[3-(3,5-Difluorophenyl)-1H-pyrazol-4-ylmethyl]-amino}-phenyl)-butan-1-one] | < 1000 nM
